Assay [1] addresses T1, catalytic domain of Human PARP (Homo sapiens, UniProt P09874).
T1 construct: The catalytic domain of Human PARP was cloned and prepared; made in house
Nature of the assay: Biacore surface plasmon resonance affinity assay (dissociation constant KD). Type of assay: binding. Particulars: pKD=-log(KD), KD in molar concentration; Biacore T100, 25° C. The method, then: Dissociation Constant (KD) from Surface Plasmon Resonance
The catalytic domain of Human PARP was cloned and prepared as described in Kinoshita, T.; Nakanishi, I.; Warizaya, M.; Iwashita, A.; Kido, Y.; Hattori, K. and Fujii, T. 2006 FEBS Letters 556, 43-46. Purified enzyme was stored at −80° C. in 25 mM Tris(hydroxymethyl)aminomethane (Tris) pH 7.4, 150 mM NaCl, 2 mM dithiothreitol (DTT) at a concentration of 6 mg/ml.
Biacore affinity assays for test compounds were conducted on a Biacore T100 (GE Healthcare) as follows. A Series S Sensor Chip CM5 (part number BR-1006-68, GE Healthcare) was activated for amide coupling with an Amine Coupling Kit (part number BR-1000-50, GE Healthcare) as described by the manufacturer. The mobile phase buffer consisted of Biacore buffer HBS-P (part number BR-1003-68, GE Healthcare) supplemented with 1% v/v dimethylsulfoxide (DMSO), 0.5 mM Tris(2-carboxyethyl)phosphine hydrochloride (TCEP), and 5 mM MgCl2. Enzyme samples (2 μl/6 mg/ml) stored at −80° C. were diluted to 0.080 mg/ml with 10 mM 4-morpholineethanesulfonic acid (MES) pH 6.5 and then mounted on the activated Biacore CM5 chip at a flow rate of 10 μl/min for 240 seconds. When successfully mounted, a signal of approximately 8,000 reflective units was observed. Test compounds were diluted 9 times 2-fold serially in mobile phase buffer (listed above) at 1% v/v DMSO final to generate a concentration gradient bracketing their anticipated KDs. Biacore mounted PARP was given a 1 minute exposure (association phase) to various concentrations of test compounds to observe a steady state equilibrium or an on rate. The exposure was followed with a dissociation phase of 5 minutes. The association and dissociation phases were at a flow rate of 50 μl/min and a temperature of 25° C.
Parameters Rmax (response at saturation) and KD (binding constant) were calculated through a nonlinear least squares fitting of the equation to the data by use of the Biacore T100 analysis software.
Parameter optimization was through a nonlinear least squares analysis of the association phase Response=Rmax*(1−exp(−(kon[cmpd]+koff)*t)) and dissociation phase Response=[…] by use of the Biacore T100 analysis software. The binding constant KD was calculated from the definition KD=koff/kon
(SPR reads the build-up and loss of mass on a sensor chip optically.)

In the next assay the test system is Jurkat cell line. Nature of the assay: PARP cellular chemopotentiation assay (MTS cell viability with and without TMZ). Type of assay: cell-based. Particulars: ratio of EC50 for inhibition of cell viability without and with 100 μM TMZ; Jurkat cells, 96 hours of treatment. In short, it runs like this: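 Jurkat cells, 10,000/well, pre-cultured 24 h, then treated 96 h with serial compound dilutions (0.5% DMSO) with or without 100 μM TMZ. Viability by MTS conversion (OD490), normalized to DMSO controls; EC50 from curve fits, PF50 = EC50 without TMZ / EC50 with TMZ.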

The next assay has as its target T2, PARP (Homo sapiens, UniProt P09874).
T2 construct: purchased Trevigen 4684-096-01 (enzyme); kit 4684-096-K HT
Nature of the assay: PARP ELISA colorimetric assay of inhibition of PARP catalytic activity (IC50). Type of assay: biochemical. Particulars: pIC50=-log(IC50), IC50 in molar concentration; ELISA-based PARP kit, 10 minutes of catalysis. Put shortly: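 Human PARP was added as a 0.1 nM solution to histone-coated wells with compound for a 10-min ambient preincubation. The reaction was started with 100 μM NAD+ solution plus activated DNA and run 10 min. PAR formation was detected by anti-PAR ELISA, colorimetric. IC50 came from a 12-point, 3-fold gradient fitted by nonlinear least squares to a Hill equation.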
(ELISA stands for enzyme-linked immunosorbent assay.)

T2 sequence (P09874 whole entry): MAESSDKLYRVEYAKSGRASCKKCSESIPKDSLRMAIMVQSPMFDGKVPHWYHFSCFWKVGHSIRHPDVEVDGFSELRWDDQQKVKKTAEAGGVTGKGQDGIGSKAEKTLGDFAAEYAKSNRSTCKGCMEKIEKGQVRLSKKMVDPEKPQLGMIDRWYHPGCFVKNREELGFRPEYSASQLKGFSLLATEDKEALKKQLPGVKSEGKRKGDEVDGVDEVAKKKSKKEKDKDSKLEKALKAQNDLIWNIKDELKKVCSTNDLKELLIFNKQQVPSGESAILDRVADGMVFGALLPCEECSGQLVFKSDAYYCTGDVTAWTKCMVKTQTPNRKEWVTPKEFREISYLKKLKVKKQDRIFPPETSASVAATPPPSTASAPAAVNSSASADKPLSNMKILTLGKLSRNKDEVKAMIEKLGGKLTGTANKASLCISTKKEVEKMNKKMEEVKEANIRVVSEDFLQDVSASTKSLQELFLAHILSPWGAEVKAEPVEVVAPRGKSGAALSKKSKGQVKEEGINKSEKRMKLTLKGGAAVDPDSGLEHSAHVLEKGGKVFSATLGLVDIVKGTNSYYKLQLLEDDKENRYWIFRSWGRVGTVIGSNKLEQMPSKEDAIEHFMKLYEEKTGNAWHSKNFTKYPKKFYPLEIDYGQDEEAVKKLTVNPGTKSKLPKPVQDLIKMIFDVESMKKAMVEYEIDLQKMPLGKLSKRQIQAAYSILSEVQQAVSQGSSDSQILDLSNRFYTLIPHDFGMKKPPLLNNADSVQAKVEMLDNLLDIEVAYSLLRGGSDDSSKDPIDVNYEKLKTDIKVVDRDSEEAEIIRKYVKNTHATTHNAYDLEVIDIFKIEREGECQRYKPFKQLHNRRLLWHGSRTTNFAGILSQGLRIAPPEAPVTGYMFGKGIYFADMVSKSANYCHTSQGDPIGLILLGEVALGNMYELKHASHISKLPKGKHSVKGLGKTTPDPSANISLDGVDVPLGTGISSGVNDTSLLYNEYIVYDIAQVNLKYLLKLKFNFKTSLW
T1 sequence (P09874 788-1014 limits assumed): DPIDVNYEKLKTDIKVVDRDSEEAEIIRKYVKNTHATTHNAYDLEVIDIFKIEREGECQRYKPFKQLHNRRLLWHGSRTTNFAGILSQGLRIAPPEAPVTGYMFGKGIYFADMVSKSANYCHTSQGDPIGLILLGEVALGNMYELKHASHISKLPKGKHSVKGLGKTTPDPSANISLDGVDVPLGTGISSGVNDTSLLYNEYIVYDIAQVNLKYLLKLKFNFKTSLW

By Kd is commonly meant the equilibrium constant for the complex coming apart. A low value points to higher affinity. Turning to `O=C1Nc2cc(CN3CCC(c4ccc(Cl)cc4)CC3)cnc2N2CCC[C@@H]12` [Compound 3, (S)-3-((4-(4-chlorophenyl)piperidin-1-yl)methyl)-6a,7,8,9-tetrahydropyrido[3,2-e]pyrrolo[1,2-a]pyrazin-6(5H)-one], in assay [1], the Kd was 31.6 to 794 nM. Also, the PF50 in the assay on Jurkat cell line is listed as greater than 10.
The IC50 is the concentration that gives 50% inhibition. Regarding `CCNC(=O)c1ccc(N2CCN(Cc3cnc4c(c3)NC(=O)[C@@H]3CCCN43)CC2)cc1` [Compound 10, (S)—N-ethyl-4-(4-((6-oxo-5,6,6a,7,8,9-hexahydropyrido[3,2-e]pyrrolo[1,2-a]pyrazin-3-yl)methyl)piperazin-1-yl)benzamide], the Kd in assay [1] was less than 31.6 nM. In addition, the PF50 with Jurkat cell line is given as greater than 5000. The concentration for half-maximal inhibition (IC50) against PARP was no more than 12.6 nM.
`C[C@H]1C(=O)Nc2cc(CN3CC=C(c4ccc(Cl)cc4)CC3)cnc2N1C` [Compound 52, (S)-7-((4-(4-chlorophenyl)-5,6-dihydropyridin-1(2H)-yl)methyl)-3,4-dimethyl-3,4-dihydropyrido[3,2-b]pyrazin-2(1H)-one] showed a Kd in assay [1] of less than 31.6 nM. Moreover, the PF50 result in the assay on Jurkat cell line was “≧0”.
For the compound `C[C@H]1C(=O)Nc2cc(CN3CCC(c4ccc(Cl)cc4)CC3)cnc2N1C` [Compound 53, (S)-7-((4-(4-chlorophenyl)piperidin-1-yl)methyl)-3,4-dimethyl-3,4-dihydropyrido[3,2-b]pyrazin-2(1H)-one], the Kd in assay [1] was 31.6 to 794 nM. For the same compound, in the assay on Jurkat cell line, the PF50 entry is recorded as “≧0”. The same compound showed an IC50 against PARP of no less than 50.1 nM.
Compound `C[C@H]1C(=O)Nc2cc(CN3CCC(c4ccccc4)CC3)cnc2N1C` [Compound 54, (S)-3,4-dimethyl-7-((4-phenylpiperidin-1-yl)methyl)-3,4-dihydropyrido[3,2-b]pyrazin-2(1H)-one] had a Kd in assay [1] of no less than 1000 nM.
Take `C[C@H]1C(=O)Nc2cc(CN3CC=C(c4ccc(F)cc4)CC3)cnc2N1C` [Compound 56, (S)-7-((4-(4-fluorophenyl)-5,6-dihydropyridin-1(2H)-yl)methyl)-3,4-dimethyl-3,4-dihydropyrido[3,2-b]pyrazin-2(1H)-one]: the dissociation constant Kd in assay [1] is less than 31.6 nM. The PF50 result in the assay with Jurkat cell line was “≧0”.
`C[C@H]1C(=O)Nc2cc(CN3CC=C(c4ccccc4)CC3)cnc2N1C` [Compound 57, (S)-3,4-dimethyl-7-((4-phenyl-5,6-dihydropyridin-1(2H)-yl)methyl)-3,4-dihydropyrido[3,2-b]pyrazin-2(1H)-one]: the Kd in assay [1] is less than 31.6 nM. In addition, the PF50 result in the assay on Jurkat cell line was “≧0”.
As for `C[C@H]1C(=O)Nc2cc(CN3CCN(c4cccc(Cl)c4)CC3)cnc2N1C` [Compound 58, (S)-7-((4-(3-chlorophenyl)piperazin-1-yl)methyl)-3,4-dimethyl-3,4-dihydropyrido[3,2-b]pyrazin-2(1H)-one], in assay [1], the Kd is no less than 1000 nM.
As for `C[C@H]1C(=O)Nc2cc(CN3CCN(c4ccc(Cl)cc4)CC3)cnc2N1C` [Compound 59, (S)-7-((4-(4-chlorophenyl)piperazin-1-yl)methyl)-3,4-dimethyl-3,4-dihydropyrido[3,2-b]pyrazin-2(1H)-one], the Kd in assay [1] is less than 31.6 nM. Moreover, in the assay on Jurkat cell line, the PF50 entry is reported as “≧0”.
The compound `CC(C)N1c2ncc(CN3CC=C(c4ccc(Cl)cc4)CC3)cc2NC(=O)[C@@H]1C` [Compound 60, (S)-7-((4-(4-chlorophenyl)-5,6-dihydropyridin-1(2H)-yl)methyl)-4-isopropyl-3-methyl-3,4-dihydropyrido[3,2-b]pyrazin-2(1H)-one] had a Kd in assay [1] of no less than 1000 nM.
For `CC(C)N1c2ncc(CN3CCN(c4ccc(Cl)cc4)CC3)cc2NC(=O)[C@@H]1C` [Compound 61, (S)-7-((4-(4-chlorophenyl)piperazin-1-yl)methyl)-4-isopropyl-3-methyl-3,4-dihydropyrido[3,2-b]pyrazin-2(1H)-one], the Kd in assay [1] is no less than 1000 nM.
`CCN1c2ncc(CN3CC=C(c4ccc(Cl)cc4)CC3)cc2NC(=O)[C@@H]1C` [Compound 63, (S)-7-((4-(4-chlorophenyl)-5,6-dihydropyridin-1(2H)-yl)methyl)-4-ethyl-3-methyl-3,4-dihydropyrido[3,2-b]pyrazin-2(1H)-one] had a Kd in assay [1] of 31.6 to 794 nM. The PF50 result with Jurkat cell line is listed as “≧0”.
In assay [1], `O=C1Nc2cc(CN3CC=C(c4ccc(Cl)cc4)CC3)cnc2N2CCCCC12` (stereo not shown) [Compound 65, 3-((4-(4-chlorophenyl)-5,6-dihydropyridin-1(2H)-yl)methyl)-7,8,9,10-tetrahydro-5H-dipyrido[1,2-a:3′,2′-e]pyrazin-6(6aH)-one] gave a Kd of no less than 1000 nM. In addition, in the assay on Jurkat cell line, the PF50 is recorded as greater than 10. The IC50 against PARP is no more than 12.6 nM.
In assay [1], `O=C1Nc2cc(CN3CCN(c4ccc(Cl)cc4)CC3)cnc2N2CCCCC12` (stereo not shown) [Compound 66, 3-((4-(4-chlorophenyl)piperazin-1-yl)methyl)-7,8,9,10-tetrahydro-5H-dipyrido[1,2-a:3′,2′-e]pyrazin-6(6aH)-one] showed a Kd of no less than 1000 nM. The PF50 with Jurkat cell line is given as greater than 10. On PARP, this compound had an IC50 of 15.8 to 39.8 nM.
Turning to `O=C1Nc2cc(CN3CCC(c4ccc(Cl)cc4)CC3)cnc2N2CCCCC12` (stereo not shown) [Compound 67, 3-((4-(4-chlorophenyl)piperidin-1-yl)methyl)-7,8,9,10-tetrahydro-5H-dipyrido[1,2-a:3′,2′-e]pyrazin-6(6aH)-one], the Kd in assay [1] was less than 31.6 nM. The PF50 result in the assay on Jurkat cell line is given as “≧0”. This compound also gave an IC50 against PARP of 15.8 to 39.8 nM.
Regarding `CN1CC(=O)Nc2cc(CN3CC=C(c4ccc(Cl)cc4)CC3)cnc21` [Compound 80, 7-((4-(4-chlorophenyl)-5,6-dihydropyridin-1(2H)-yl)methyl)-4-methyl-3,4-dihydropyrido[2,3-b]pyrazin-2(1H)-one], the Kd in assay [1] was less than 31.6 nM. Also, in the assay on Jurkat cell line, the PF50 result was “≧0”. In addition, the 50% inhibitory concentration (IC50) against PARP is no less than 50.1 nM.
In turn, `CN1CC(=O)Nc2cc(CN3CCN(c4ccc(Cl)cc4)CC3)cnc21` [Compound 81, 7-((4-(4-chlorophenyl)piperazin-1-yl)methyl)-4-methyl-3,4-dihydropyrido[2,3-b]pyrazin-2(1H)-one] showed a Kd in assay [1] of 31.6 to 794 nM. Moreover, the PF50 entry in the assay with Jurkat cell line was “≧0”. At PARP, the IC50 is no less than 50.1 nM.
As for `CN1CC(=O)Nc2cc(CN3CCC(c4ccc(Cl)cc4)CC3)cnc21` [Compound 82, 7-((4-(4-chlorophenyl)piperidin-1-yl)methyl)-4-methyl-3,4-dihydropyrido[2,3-b]pyrazin-2(1H)-one], the Kd in assay [1] was 31.6 to 794 nM. The PF50 entry in the assay with Jurkat cell line is on record as “≧0”. The IC50 against PARP is no less than 50.1 nM.
The matching figures for `O=C1CN(Cc2ccccc2)c2ncc(CN3CC=C(c4ccc(Cl)cc4)CC3)cc2N1` [Compound 83, 4-benzyl-7-((4-(4-chlorophenyl)-5,6-dihydropyridin-1(2H)-yl)methyl)-3,4-dihydropyrido[2,3-b]pyrazin-2(1H)-one]: no less than 1000 nM, “≧0” and 15.8 to 39.8 nM.
The matching figures for `O=C1CN(Cc2ccccc2)c2ncc(CN3CCN(c4ccc(Cl)cc4)CC3)cc2N1` [Compound 84, 4-benzyl-7-((4-(4-chlorophenyl)piperazin-1-yl)methyl)-3,4-dihydropyrido[2,3-b]pyrazin-2(1H)-one]: 31.6 to 794 nM, “≧0” and no more than 12.6 nM.
The matching figures for `O=C1CN(Cc2ccccc2)c2ncc(CN3CCC(c4ccc(Cl)cc4)CC3)cc2N1` [Compound 85, 4-benzyl-7-((4-(4-chlorophenyl)piperidin-1-yl)methyl)-3,4-dihydropyrido[2,3-b]pyrazin-2(1H)-one]: 31.6 to 794 nM, “≧0” and 15.8 to 39.8 nM.
In turn, `O=C1Nc2cc(CN3CC=C(c4ccc(Cl)cc4)CC3)cnc2N2CCSCC12` (stereo not shown) [Compound 86, 3-((4-(4-chlorophenyl)-5,6-dihydropyridin-1(2H)-yl)methyl)-6a,7,9,10-tetrahydropyrido[3,2-e][1,4]thiazino[4,3-a]pyrazin-6(5H)-one] had a Kd in assay [1] of less than 31.6 nM. In the assay with Jurkat cell line, the PF50 is on record as greater than 500. Also, the half-maximal inhibitory concentration (IC50) at PARP was 15.8 to 39.8 nM.

(Values after patent publication US9187497B2, “Substituted pyrido[3,2-e]pyrrolo[1,2-a]pyrazines as inhibitors of poly(ADP-ribose)polymerase (PARP)” (Takeda Phamaceutical Company Limited, priority 2009, dated 2015).)
